Like-named read-outs stand apart in the source and are kept apart here.
Key:
[1] = Stability in pH2 buffered solution; type: physicochemical; conditions: pH2 phosphate buffer, 40° C.; for pH 2 Stability 24 h % AN: Table N2
In short: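 Compounds diluted from 1 mg/mL acetonitrile stock to 50 μg/mL in 50 mM phosphate buffer with 150 mM NaCl at pH2 or pH7, held at 40° C. for 24 hrs. UPLC sampling at 0, 3, 6, 9, 12 hrs, plus 24 hrs from oven-stored duplicate; reported as % area normalized of compound peak.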

[2] = tested on: Respiratory syncytial virus recombinant with luciferase (RSV-Luc5) in HEp-2 cells; experiment: microbe, parasite or virus in culture; type: cell-based; conditions: human respiratory syncytial virus
[3] = CC50 MT4 cytotoxicity (Cell-Titer Glo); type: cell-based; conditions: human
In short: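 Uninfected MT-4 and HEp-2 cells cultured 4-5 days at 37° C with 3-fold serially diluted compound (15 nM to 100,000 nM). Viability read by Cell-Titer Glo luminescence; untreated and 2 μM puromycin wells set 100% and 0%. CC50 from non-linear regression as concentration reducing viability by 50%.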

[4] = tested on: Caco-2 cells (clone C2BBe1); experiment: CACO-2 permeability; type: in vitro ADME; set-up: unit not given here; conditions: for DM Caco2 A to B: apical to basolateral, donor pH 6.5, receiver pH 7.4; for DM Caco2 B to A: basolateral to apical
In short: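 Caco-2 monolayers grown 21 days on collagen-coated transwells and checked for integrity by TEER. Donor buffer was HBSS/HEPES/glucose pH 6.5 with 200 μM BNPP; receiver was pH 7.4 with BSA. Compounds were dosed apically or basolaterally for A-to-B and B-to-A transport, with receiver sampling at 1 and 2 h, LC-MS/MS analysis and percent recovery.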

GI S9 stability = type: in vitro ADME; conditions: human, s9, pH 7.4
[5] = HEp-2, 72 h, read-out: RSV Hep2 EC50

For `CC12CCC(C1)C(C)(C)C2OC(=O)OC[C@H]1O[C@@](C#N)(c2ccc3c(N)ncnn23)[C@H](O)[C@@H]1O` (mixture of isomers) [Compound 48, ((2R,3S,4R,5R)-5-(4-aminopyrrolo[2,1-f][1,2,4]triazin-7-yl)-5-cyano-3,4-dihydroxytetrahydrofuran-2-yl)methyl (1,3,3-trimethylbicyclo[2.2.1]heptan-2-yl) carbonate], the “pH 2 Stability 24 h % AN” value [1] was 100 % AN, the EC50 [2, 5] was 2.35 µM and the CC50 [3] was 25.5 µM. For the same molecule, the “DM Caco2 A to B” value [4] was 6.19 and the “DM Caco2 B to A” value [4] was 12.52.

With `CC(C)OC(=O)OC[C@H]1O[C@@](C#N)(c2ccc3c(N)ncnn23)[C@H](O)[C@@H]1O` [Compound 4, [(2R,3S,4R,5R)-5-(4-aminopyrrolo[2,1-f][1,2,4]triazin-7-yl)-5-cyano-3,4-dihydroay-tetrahydrofuran-2-yl]methyl isopropyl carbonate] the “Stability at pH2, 0 hr” value [1] was 98.5 % AN, the “Stability at pH2, 3 hr” value [1] was 98.3 % AN and the “Stability at pH2, 6 hr” value [1] was 98.5 % AN. The “Stability at pH2, 9 hr” value [1] was 98.4 % AN, the “Stability at pH2, 12 hr” value [1] was 98.5 % AN and the “pH 2 Stability 24 h % AN” value [1] was 98 % AN. The “Stability at pH2, 24 hr” value [1] was 98.3 % AN, the EC50 [2, 5] was 0.606 µM and the CC50 [3] was > 50 µM. For the same molecule, the half-life at 2 µM (GI S9 stability) was 4.21 h, the “DM Caco2 A to B” value [4] was 0.545 and the “DM Caco2 B to A” value [4] was 5.29.

For `CCOC(=O)OC[C@H]1O[C@@](C#N)(c2ccc3c(N)ncnn23)[C@H](O)[C@@H]1O` [Compound 6, ((2R,3S,4R,5R)-5-(4-aminopyrrolo[2,1-f][1,2,4]triazin-7-yl)-5-cyano-3,4-dihydroxytetrahydrofuran-2-yl)methyl ethyl carbonate], the “pH 2 Stability 24 h % AN” value [1] was 100 % AN, the EC50 [2, 5] was 1.11 µM and the CC50 [3] was > 50 µM. The half-life at 2 µM (GI S9 stability) was 11.9 h, the “DM Caco2 A to B” value [4] was 0.21 and the “DM Caco2 B to A” value [4] was 2.77.

With `CC(C)(C)OC(=O)OC[C@H]1O[C@@](C#N)(c2ccc3c(N)ncnn23)[C@H](O)[C@@H]1O` [Compound 46, ((2R,3S,4R,5R)-5-(4-aminopyrrolo[2,1-f][1,2,4]triazin-7-yl)-5-cyano-3,4-dihydroxytetrahydrofuran-2-yl)methyl tert-butyl carbonate] the “pH 2 Stability 24 h % AN” value [1] was 4 % AN, the EC50 [2, 5] was 2.32 µM and the CC50 [3] was > 50 µM. For the same molecule, the half-life at 2 µM (GI S9 stability) was 7.32 h, the “DM Caco2 A to B” value [4] was 0.76 and the “DM Caco2 B to A” value [4] was 10.66.

In the case of `CC1(OC(=O)OC[C@H]2O[C@@](C#N)(c3ccc4c(N)ncnn34)[C@H](O)[C@@H]2O)CCCCC1` [Compound 47, ((2R,3S,4R,5R)-5-(4-aminopyrrolo[2,1-f][1,2,4]triazin-7-yl)-5-cyano-3,4-dihydroxytetrahydrofuran-2-yl)methyl (1-methylcyclohexyl) carbonate], the “pH 2 Stability 24 h % AN” value [1] is reported as 1 % AN, the EC50 [2, 5] is reported as 2.33 µM and the CC50 [3] is reported as > 50 µM. The “DM Caco2 A to B” value [4] was 1.68 and the “DM Caco2 B to A” value [4] was 11.38.

In the case of `CC(C)(OC(=O)OC[C@H]1O[C@@](C#N)(c2ccc3c(N)ncnn23)[C@H](O)[C@@H]1O)c1ccncc1` [Compound 49, ((2R,3S,4R,5R)-5-(4-aminopyrrolo[2,1-f][1,2,4]triazin-7-yl)-5-cyano-3,4-dihydroxytetrahydrofuran-2-yl)methyl (2-(pyridin-4-yl)propan-2-yl) carbonate], the “pH 2 Stability 24 h % AN” value [1] is reported as 97 % AN, the EC50 [2, 5] is reported as > 50 µM and the CC50 [3] is reported as > 50 µM. The “DM Caco2 A to B” value [4] was 0.13 and the “DM Caco2 B to A” value [4] was 3.48.

For `CC1(C)[C@@H]2CC[C@@]1(C)[C@@H](OC(=O)OC[C@H]1O[C@@](C#N)(c3ccc4c(N)ncnn34)[C@H](O)[C@@H]1O)C2` [Compound 51, ((2R,3S,4R,5R)-5-(4-aminopyrrolo[2,1-f][1,2,4]triazin-7-yl)-5-cyano-3,4-dihydroxytetrahydrofuran-2-yl)methyl ((1R,2S,4R)-1,7,7-trimethylbicyclo[2.2.1]heptan-2-yl) carbonate], the “pH 2 Stability 24 h % AN” value [1] was 98 % AN, the EC50 [2, 5] was 2.14 µM and the CC50 [3] was 38.3 µM. For the same molecule, the “DM Caco2 A to B” value [4] was 4.35 and the “DM Caco2 B to A” value [4] was 17.19.

In the case of `CC(C)C(=O)O[C@H]1[C@@H](OC(=O)C(C)C)[C@](C#N)(c2ccc3c(N)ncnn23)O[C@@H]1COC(=O)OC(C)(C)C` [Compound 58, (2R,3R,4R,5R)-2-(4-aminopyrrolo[2,1-f][1,2,4]triazin-7-yl)-5-(((tert-butoxycarbonyl)oxy)methyl)-2-cyanotetrahydrofuran-3,4-diyl bis(2-methylpropanoate)], the “pH 2 Stability 24 h % AN” value [1] is reported as 2 % AN, the EC50 [2, 5] is reported as 1.36 µM and the CC50 [3] is reported as 27.1 µM. The “DM Caco2 A to B” value [4] was 5.67 and the “DM Caco2 B to A” value [4] was 6.86.

With `CC(C)OC(=O)OC[C@H]1O[C@@](C#N)(c2ccc3c(N)ncnn23)[C@H](OC(=O)C(C)C)[C@@H]1OC(=O)C(C)C` [Compound 59, (2R,3R,4R,5R)-2-(4-aminopyrrolo[2,1-f][1,2,4]triazin-7-yl)-2-cyano-5-(((isopropoxycarbonyl)oxy)methyl)tetrahydrofuran-3,4-diyl bis(2-methylpropanoate)] the “Stability at pH2, 0 hr” value [1] was 100.0 % AN, the “Stability at pH2, 3 hr” value [1] was 100.0 % AN and the “Stability at pH2, 6 hr” value [1] was 100.0 % AN. For the same molecule, the “Stability at pH2, 9 hr” value [1] was 100.0 % AN, the “Stability at pH2, 12 hr” value [1] was 98.9 % AN and the “pH 2 Stability 24 h % AN” value [1] was 98 % AN. For the same molecule, the “Stability at pH2, 24 hr” value [1] was 97.9 % AN, the EC50 [2, 5] was 0.786 µM and the CC50 [3] was > 50 µM. For the same molecule, the half-life at 2 µM (GI S9 stability) was 0.0239 h, the “DM Caco2 A to B” value [4] was 11.61 and the “DM Caco2 B to A” value [4] was 17.7.

With `CC(=O)O[C@H]1[C@@H](OC(C)=O)[C@](C#N)(c2ccc3c(N)ncnn23)O[C@@H]1COC(=O)OC(C)C` [Compound 65, (2R,3R,4R,5R)-2-(4-aminopyrrolo[2,1-f][1,2,4]triazin-7-yl)-2-cyano-5-(((isopropoxycarbonyl)oxy)methyl)tetrahydrofuran-3,4-diyl diacetate] the “pH 2 Stability 24 h % AN” value [1] was 90 % AN, the EC50 [2, 5] was 1.08 µM and the CC50 [3] was > 50 µM. For the same molecule, the “DM Caco2 A to B” value [4] was 3.07 and the “DM Caco2 B to A” value [4] was 7.23.

In the case of `COC(=O)OC[C@H]1O[C@@](C#N)(c2ccc3c(N)ncnn23)[C@H](OC(C)=O)[C@@H]1OC(C)=O` [Compound 128, (2R,3R,4R,5R)-2-(4-aminopyrrolo[2,1-f][1,2,4]triazin-7-yl)-2-cyano-5-(((methoxycarbonyl)oxy)methyl)tetrahydrofuran-3,4-diyl diacetate], the “Stability at pH2, 0 hr” value [1] is reported as 100.0 % AN, the “Stability at pH2, 3 hr” value [1] is reported as 98.3 % AN and the “Stability at pH2, 6 hr” value [1] is reported as 96.7 % AN. The “Stability at pH2, 9 hr” value [1] was 95.2 % AN, the “Stability at pH2, 12 hr” value [1] was 93.8 % AN and the “pH 2 Stability 24 h % AN” value [1] was 89 % AN. The “Stability at pH2, 24 hr” value [1] was 89.3 % AN, the CC50 [3] was > 50 µM and the “DM Caco2 A to B” value [4] was 3.35. For the same molecule, the “DM Caco2 B to A” value [4] was 5.69.

For `CCOC(=O)OC[C@H]1O[C@@](C#N)(c2ccc3c(N)ncnn23)[C@H](OC(C)=O)[C@@H]1OC(C)=O` [Compound 129, (2R,3R,4R,5R)-2-(4-aminopyrrolo[2,1-f][1,2,4]triazin-7-yl)-2-cyano-5-(((ethoxycarbonyl)oxy)methyl)tetrahydrofuran-3,4-diyl diacetate], the “Stability at pH2, 0 hr” value [1] was 100.0 % AN, the “Stability at pH2, 3 hr” value [1] was 98.4 % AN and the “Stability at pH2, 6 hr” value [1] was 96.9 % AN. For the same molecule, the “Stability at pH2, 9 hr” value [1] was 95.5 % AN, the “Stability at pH2, 12 hr” value [1] was 94.0 % AN and the “pH 2 Stability 24 h % AN” value [1] was 89 % AN. For the same molecule, the “Stability at pH2, 24 hr” value [1] was 89.4 % AN, the CC50 [3] was > 50 µM and the “DM Caco2 A to B” value [4] was 3.505. The “DM Caco2 B to A” value [4] was 6.635.

With `CC(C)OC(=O)Nc1ncnn2c([C@]3(C#N)O[C@H](COC(=O)OC(C)C)[C@@H](O)[C@H]3O)ccc12` [Compound 137, isopropyl (7-((2R,3R,4S,5R)-2-cyano-3,4-dihydroxy-5-(((isopropoxycarbonyl)oxy)methyl)tetrahydrofuran-2-yl)pyrrolo[2, i-f][1,2,4]triazin-4-yl)carbamate] the “pH 2 Stability 24 h % AN” value [1] was 80 % AN, the EC50 ([2]; HEp-2, read-out: EC50 RSVFluc-Hep2 384 V2) was > 50 µM and the logD (physchem) was 2. For the same molecule, the CC50 [3] was > 50 µM, the “DM Caco2 A to B” value [4] was 0.98 and the “DM Caco2 B to A” value [4] was 11.37.

From patent US12448383B2, “Compounds and methods for treatment of viral infections” (priority 2022, dated 2025)
